Results as given in patent publication US12371454B2, “Cyclic peptide compound having Kras inhibitory action” (priority 2019, dated 2025).
Starred links: 1 amine or outer side, 2 acyl side, 3 side chain; linkers in the order of their positions; H or OH if unused. Positions of bridges follow the written chain, without caps; N, C: chain ends. Non-standard residues stand in square brackets, D forms with d. Residues, ends and D or L forms follow the SMILES beside them. *: point of attachment. hPhe(3,5-F2-4-CF3) = N[C@@H](CCc1cc(F)c(C(F)(F)F)c(F)c1)C(=O)O; hPhe(3-Cl-4-CF3) = N[C@@H](CCc1ccc(C(F)(F)F)c(Cl)c1)C(=O)O; hPhe(3-F,4-CF3) = N[C@@H](CCc1ccc(C(F)(F)F)c(F)c1)C(=O)O; NMePhe(4-CF3) = CN[C@@H](Cc1ccc(C(F)(F)F)cc1)C(=O)O; Pro(trans-4-Ph) = O=C(O)[C@@H]1C[C@@H](c2ccccc2)CN1; hPhe(4-CF3) = N[C@@H](CCc1ccc(C(F)(F)F)cc1)C(=O)O; 3Oxa8azabicyclo(3.2.1)octane = C1CC2COCC1N2*; NMeAbu(4,4,4-F3) = CN[C@@H](CC(F)(F)F)C(=O)O; NMePhe(4-Cl) = CN[C@@H](Cc1ccc(Cl)cc1)C(=O)O; NMePhe(2-Cl) = CN[C@@H](Cc1ccccc1Cl)C(=O)O; NMePhe(4-I) = CN[C@@H](Cc1ccc(I)cc1)C(=O)O; NMedβ3hAla = C[C@H](CC(=O)[*:2])N(C)[*:1]; NMeGly(cPent) = CN[C@H](C(=O)O)C1CCCC1; Phe(3-I) = N[C@@H](Cc1cccc(I)c1)C(=O)O; NMeGly(cBu) = CN[C@H](C(=O)O)C1CCC1; NMeCha = CN[C@@H](CC1CCCCC1)C(=O)O; NEtLeu = CCN[C@@H](CC(C)C)C(=O)O; NMeChg = CN[C@H](C(=O)O)C1CCCCC1; NMeD = CN[C@@H](CC(=O)O)C(=O)O; NMeHpra = C#CCC[C@H](NC)C(=O)O; AllylGly = C=CC[C@H](N)C(=O)O; NMeL = CN[C@@H](CC(C)C)C(=O)O; NPrAla = CCCN[C@@H](C)C(=O)O; NMeV = CN[C@H](C(=O)O)C(C)C; d(β3hA) = C[C@@H](N)CC(=O)O; NMeS = CN[C@@H](CO)C(=O)O; Nle = CCCC[C@H](N)C(=O)O; Piperidide = C1CCN(*)CC1; Pyrrolidide = C1CCN(*)C1; Ac5c = NC1(C(=O)O)CCCC1; Aze = O=C(O)[C@@H]1CCN1; CH2CMe2OH = CC(C)(O)C*; Aib = CC(C)(N)C(=O)O; Sar = CNCC(=O)O; Propyl = CCC*

Columns and labels:
[1] = biological target: T1, Kras and SOS1 (biotin-tagged human Kras loaded with GDP, His-tagged human SOS1) (Homo sapiens, UniProt P01116, G12D); assay: Protein-protein interaction inhibition between Kras and SOS1 (KrasGl2D-SOS PPI) using AlphaScreen; format: binding; conditions: AlphaScreen; biotin-tagged human Kras loaded with GDP, His-tagged human SOS1; read-out: KRAS G12D-SOS PPI IC50
T1 construct: made in house; host or cells: E. coli (stated for Kras only)
T1 sequence (P01116 1-188 isoform P01116-2 G12D): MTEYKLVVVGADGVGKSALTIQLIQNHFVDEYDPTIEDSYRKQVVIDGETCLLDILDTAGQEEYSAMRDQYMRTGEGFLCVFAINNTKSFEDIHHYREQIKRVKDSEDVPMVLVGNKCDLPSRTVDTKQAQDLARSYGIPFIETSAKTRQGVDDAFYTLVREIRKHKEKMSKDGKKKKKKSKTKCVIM
In short: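 Donor beads (nickel) hold His-SOS1; acceptor beads (streptavidin) hold biotin-Kras bound to GDP. Signal measured at 520-620 nm following 680 nm excitation.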

[2] = test system: Human pancreatic cancer cell line AsPC-1; assay: Measurement of AsPC-1 cell growth inhibition (AsPC-1 CGI); format: cell-based; conditions: 96 h
In short: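 AsPC-1 cells in 15% FBS RPMI-1640 were exposed to test compound for 96 hours at 37° C, with CellTiter-Glo as endpoint.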

Row | Structure (SMILES) | IC50 [1] [µM] | IC50 [2] [µM]
1 | CC[C@H](C)[C@@H]1NC(=O)[C@H](CC(C)C)N(C)C(=O)C[C@@H](C(=O)N2CCCCC2)N(C)C(=O)[C@H](C(C)C)N(C)C(=O)C2(CCCC2)NC(=O)[C@@H]2CCCN2C(=O)[C@H](CCc2ccc(C(F)(F)F)c(Cl)c2)NC(=O)CN(C)C(=O)[C@H](CC2CCCCC2)N(C)C(=O)[C@@H]2CCN2C(=O)[C@H](COCC(C)(C)O)N(C)C1=O [Compound 86] ([NMeL]I[NMeS](CH2CMe2OH)[Aze][NMeCha][Sar][hPhe(3-Cl-4-CF3)]P[Ac5c][NMeV][NMeD]-Piperidide; lactam N-11) | 0.009 | 0.1 to 0.5
2 | CC[C@H](C)[C@@H]1NC(=O)[C@H](C2CCCCC2)N(C)C(=O)C[C@@H](C(=O)N2CCCCC2)N(C)C(=O)[C@H](C(C)C)N(C)C(=O)C2(CCCC2)NC(=O)[C@@H]2CCCN2C(=O)[C@H](CCc2ccc(C(F)(F)F)c(Cl)c2)NC(=O)CN(C)C(=O)[C@H](CC2CCCCC2)N(C)C(=O)CN(C)C(=O)CN(C)C1=O [Compound 106] ([NMeChg]I[Sar][Sar][NMeCha][Sar][hPhe(3-Cl-4-CF3)]P[Ac5c][NMeV][NMeD]-Piperidide; lactam N-11) | 0.0089 | 0.1 to 0.5
3 | CC[C@H](C)[C@@H]1NC(=O)[C@H](CC(C)C)N(C)C(=O)C[C@@H](C(=O)N2CCCCC2)N(C)C(=O)[C@H](C(C)C)N(C)C(=O)C2(CCCC2)NC(=O)[C@@H]2CCCN2C(=O)[C@H](CCc2ccc(C(F)(F)F)cc2)NC(=O)CN(C)C(=O)[C@H](CC2CCCCC2)N(C)C(=O)CN(C)C(=O)CN(C)C1=O [Compound 108] ([NMeL]I[Sar][Sar][NMeCha][Sar][hPhe(4-CF3)]P[Ac5c][NMeV][NMeD]-Piperidide; lactam N-11) | 0.005 | 0.1 to 0.5
4 | C#CCC[C@H]1C(=O)N[C@@H]([C@@H](C)CC)C(=O)N(C)CC(=O)N(C)CC(=O)N(C)[C@@H](Cc2ccc(I)cc2)C(=O)N(C)CC(=O)N[C@@H](CCc2ccc(C(F)(F)F)c(Cl)c2)C(=O)N2CCC[C@H]2C(=O)NC2(CCCC2)C(=O)N(C)[C@@H](C2CCCCC2)C(=O)N(C)[C@H](C)CC(=O)N1C [Compound 110] (cyclo([Ac5c][NMeChg][NMedβ3hAla][NMeHpra]I[Sar][Sar][NMePhe(4-I)][Sar][hPhe(3-Cl-4-CF3)]P)) | 0.0038 | 0.1 to 0.5
5 | CC[C@H](C)[C@@H]1NC(=O)[C@H](CC(C)C)N(C)C(=O)C[C@@H](C)NC(=O)[C@H](CC(C)C)N(C)C(=O)C(C)(C)NC(=O)[C@H](CC(C)C)N(C)C(=O)[C@H](CCc2cc(F)c(C(F)(F)F)c(F)c2)NC(=O)CN(C)C(=O)[C@H](CC2CCCCC2)N(C)C(=O)CN(C)C(=O)CN(C)C1=O [Compound 119] (cyclo([Aib][NMeL][d(β3hA)][NMeL]I[Sar][Sar][NMeCha][Sar][hPhe(3,5-F2-4-CF3)][NMeL])) | 0.039 | 0.1 to 0.5
6 | CC[C@H](C)[C@@H]1NC(=O)[C@H](CC(C)C)N(C)C(=O)C[C@@H](C)NC(=O)[C@H](C(C)C)N(C)C(=O)C2(CCCC2)NC(=O)[C@@H]2CCCN2C(=O)[C@H](CCc2ccc(C(F)(F)F)c(Cl)c2)NC(=O)CN(C)C(=O)[C@H](Cc2ccc(Cl)cc2)N(C)C(=O)CN(C)C(=O)CN(C)C1=O [Compound 121] (cyclo([Ac5c][NMeV][d(β3hA)][NMeL]I[Sar][Sar][NMePhe(4-Cl)][Sar][hPhe(3-Cl-4-CF3)]P)) | 0.0054 | 0.1 to 0.5
7 | CC[C@H](C)[C@@H]1NC(=O)[C@H](CC(C)C)N(C)C(=O)C[C@@H](C)NC(=O)[C@H](C2CCCC2)N(C)C(=O)C2(CCCC2)NC(=O)[C@@H]2CCCN2C(=O)[C@H](CCc2ccc(C(F)(F)F)c(Cl)c2)NC(=O)CN(C)C(=O)[C@H](CC2CCCCC2)N(C)C(=O)CN(C)C(=O)CN(C)C1=O [Compound 122] (cyclo([Ac5c][NMeGly(cPent)][d(β3hA)][NMeL]I[Sar][Sar][NMeCha][Sar][hPhe(3-Cl-4-CF3)]P)) | 0.0086 | 0.1 to 0.5
8 | CCCOC[C@H]1C(=O)N(C)CC(=O)N[C@@H](CCc2ccc(C(F)(F)F)c(Cl)c2)C(=O)N2CCC[C@H]2C(=O)NC2(CCCC2)C(=O)N(C)[C@@H](C2CCCCC2)C(=O)N(C)[C@H](C(=O)N2CCCC2)CC(=O)N(C)[C@@H](C2CCC2)C(=O)N[C@@H]([C@@H](C)CC)C(=O)N(C)CC(=O)N(C)CC(=O)N1C [Compound 126] ([NMeGly(cBu)]I[Sar][Sar][NMeS](Propyl)[Sar][hPhe(3-Cl-4-CF3)]P[Ac5c][NMeChg][NMeD]-Pyrrolidide; lactam N-11) | 0.0005 | 0.05 to 0.1
9 | CCCN1C(=O)C[C@@H](C(=O)N2CCCCC2)N(C)C(=O)[C@H](C(C)C)N(C)C(=O)C2(CCCC2)NC(=O)[C@@H]2CCCN2C(=O)[C@H](CCc2ccc(C(F)(F)F)c(Cl)c2)NC(=O)CN(C)C(=O)[C@H](CC2CCCCC2)N(C)C(=O)CN(C)C(=O)CN(C)C(=O)[C@H]([C@@H](C)CC)NC(=O)[C@@H]1C [Compound 131] ([NPrAla]I[Sar][Sar][NMeCha][Sar][hPhe(3-Cl-4-CF3)]P[Ac5c][NMeV][NMeD]-Piperidide; lactam N-11) | 0.0033 | 0.1 to 0.5
10 | CC[C@H](C)[C@@H]1NC(=O)[C@H](CC(C)C)N(CC)C(=O)C[C@@H](C(=O)N2CCCCC2)N(C)C(=O)[C@H](C2CCCCC2)N(C)C(=O)C2(CCCC2)NC(=O)[C@@H]2CCCN2C(=O)[C@H](CCc2ccc(C(F)(F)F)c(Cl)c2)NC(=O)CN(C)C(=O)[C@H](CC2CCCCC2)N(C)C(=O)CN(C)C(=O)CN(C)C1=O [Compound 137] ([NEtLeu]I[Sar][Sar][NMeCha][Sar][hPhe(3-Cl-4-CF3)]P[Ac5c][NMeChg][NMeD]-Piperidide; lactam N-11) | 0.00076 | 0.05 to 0.1
11 | CCCOC[C@H]1C(=O)N(C)CC(=O)N[C@@H](CCc2ccc(C(F)(F)F)c(Cl)c2)C(=O)N2CCC[C@H]2C(=O)NC2(CCCC2)C(=O)N(C)[C@@H](C2CCCCC2)C(=O)N(C)[C@H](C(=O)N2C3CCC2COC3)CC(=O)N(C)[C@@H](C2CCC2)C(=O)N[C@@H]([C@@H](C)CC)C(=O)N(C)CC(=O)N(C)CC(=O)N1C [Compound 140] ([NMeGly(cBu)]I[Sar][Sar][NMeS](Propyl)[Sar][hPhe(3-Cl-4-CF3)]P[Ac5c][NMeChg][NMeD]-{3Oxa8azabicyclo(3.2.1)octane}; lactam N-11) | 0.00081 | 0.1 to 0.5
12 | CC[C@H](C)[C@@H]1NC(=O)[C@H](CC(C)C)N(C)C(=O)C[C@@H](C(=O)N2CCCCC2)N(C)C(=O)[C@H](C2CCCCC2)N(C)C(=O)C2(CCCC2)NC(=O)[C@@H]2C[C@@H](c3ccccc3)CN2C(=O)[C@H](CCc2ccc(C(F)(F)F)c(Cl)c2)NC(=O)CN(C)C(=O)[C@H](CC2CCCCC2)N(C)C(=O)[C@@H]2CCN2C(=O)CN(C)C1=O [Compound 147] ([NMeL]I[Sar][Aze][NMeCha][Sar][hPhe(3-Cl-4-CF3)][Pro(trans-4-Ph)][Ac5c][NMeChg][NMeD]-Piperidide; lactam N-11) | 0.0067 | 0.1 to 0.5
13 | C=CC[C@@H]1NC(=O)[C@H](CC(C)C)N(C)C(=O)C[C@@H](C(=O)N2CCCCC2)N(C)C(=O)[C@H](C2CCCCC2)N(C)C(=O)C2(CCCC2)NC(=O)[C@@H]2CCCN2C(=O)[C@H](CCc2ccc(C(F)(F)F)c(Cl)c2)NC(=O)CN(C)C(=O)[C@H](CC2CCCCC2)N(C)C(=O)CN(C)C(=O)CN(C)C1=O [Compound 164] ([NMeL][AllylGly][Sar][Sar][NMeCha][Sar][hPhe(3-Cl-4-CF3)]P[Ac5c][NMeChg][NMeD]-Piperidide; lactam N-11) | 0.0022 | 0.1 to 0.5
14 | CCCC[C@@H]1NC(=O)[C@H](Cc2cccc(I)c2)NC(=O)CN(C)C(=O)[C@H](Cc2ccc(Cl)cc2)N(C)C(=O)CN(C)C(=O)CN(C)C(=O)[C@H]([C@@H](C)CC)NC(=O)[C@H](CC(C)C)N(C)C(=O)C[C@@H](C(=O)N2CCCCC2)N(C)C(=O)[C@H](CC(C)C)NC(=O)[C@H](Cc2ccccc2Cl)N(C)C1=O [Compound 168] ([NMeL]I[Sar][Sar][NMePhe(4-Cl)][Sar][Phe(3-I)][Nle][NMePhe(2-Cl)]L[NMeD]-Piperidide; lactam N-11) | 0.029 | 0.1 to 0.5
15 | CC[C@H](C)[C@@H]1NC(=O)[C@H](CC(F)(F)F)N(C)C(=O)C[C@@H](C(=O)N2C3CCC2COC3)N(C)C(=O)[C@H](C2CCCCC2)N(C)C(=O)C2(CCCC2)NC(=O)[C@@H]2CCCN2C(=O)[C@H](CCc2ccc(C(F)(F)F)c(Cl)c2)NC(=O)CN(C)C(=O)[C@H](Cc2ccc(C(F)(F)F)cc2)N(C)C(=O)CN(C)C(=O)CN(C)C1=O [Compound 173] ([NMeAbu(4,4,4-F3)]I[Sar][Sar][NMePhe(4-CF3)][Sar][hPhe(3-Cl-4-CF3)]P[Ac5c][NMeChg][NMeD]-{3Oxa8azabicyclo(3.2.1)octane}; lactam N-11) | 0.00056 | 0.02 to 0.05
16 | CC[C@H](C)[C@@H]1NC(=O)[C@H](CC(C)C)N(C)C(=O)C[C@@H](C)NC(=O)[C@H](C(C)C)N(C)C(=O)C2(CCCC2)NC(=O)[C@@H]2CCCN2C(=O)[C@H](CCc2ccc(C(F)(F)F)c(F)c2)NC(=O)CN(C)C(=O)[C@H](CC2CCCCC2)N(C)C(=O)[C@@H]2CCN2C(=O)CN(C)C1=O [Compound 211] (cyclo([Ac5c][NMeV][d(β3hA)][NMeL]I[Sar][Aze][NMeCha][Sar][hPhe(3-F,4-CF3)]P)) | 0.043 | 0.1 to 0.5
